Patent US10501752B2, “Herbicide tolerant cotton event pDAB4468.19.10.3” (Dow AgroSciences LLC, priority 2012, dated 2019)

Legend:
non-transformed cotton = settings: rates much lower than the lowest rate tested (1120 g ae/ha); known; cited from earlier work
[1] = system: cotton event pDAB4468.19.10.3; assay: Tolerance to 2,4-D in field trials (percent visual injury); assay type: in vivo, Gossypium hirsutum; settings: for Percent visual injury: single post-emergence application, 2-4 leaf
Description: The tolerance of cotton event pDAB4468.19.10.3 to post-emergence applications of the phenoxyacetic acid herbicide, 2,4-D, was studied in field trials during the 2010 growing season. Herbicide tolerance was assessed following a single post-emergence application of 2,4-D applied to 2-4 leaf cotton event pDAB4468.19.10.3. The application of 2,4-D on cotton plants at this stage of development represents a herbicide application timing typically utilized to achieve satisfactory weed control by cotton growers.
2,4-D tolerance was measured by assessing cotton plants for injury at 0-1 day after application (DAA), 7-8 DAA, 12-16 DAA, and 24-32 DAA. Measurements for the 0-1 day time increment were taken from 6-24 hours after the application. Injury was assessed by assigning a percent visual injury rating using a linear percentage scale (1-100%) where 0% represents no visible herbicide injury and 100% represents plant death. The ratings were a composite score for any herbicide symptomology including epinasty, chlorosis, leaf necrosis and plant death. Herbicide symptomology present at 0-1 DAA was primarily epinasty and symptoms at later evaluations were primarily chlorosis and necrosis.
(§1) Field trials were conducted at eleven locations across the United States in typical cotton producing areas of Alabama, Arkansas, California, Georgia, Louisiana, Mississippi, North Carolina, South Carolina, and Tennessee. Trials were designed with four replications per treatment. Each replication was separated by a bare-soil alley 10-15 feet wide. Plot size for individual treatments was 2 rows by 20 feet long with rows typically spaced 36-40 inches apart. Experimental treatments consisted of cotton event pDAB4468.19.10.3 sprayed with 2,4-D amine (Weedar 64™, NuFarm, Burr Ridge, Ill.) at either 0, 1120, 2240, or 4480 grams acid equivalent per hectare (g ae/ha) applied in 15 gallons per acre of final spray solution. A non-transformed cotton comparator treatment was not included in these experiments since treatment with 2,4-D at rates much lower than the lowest rate tested (1120 g ae/ha) are known to result in plant death.

[2] = system: cotton event pDAB4468.19.10.3; assay: Agronomic characterization in field trials with and without herbicide applications; assay type: in vivo, Gossypium hirsutum; settings: sprayed vs unsprayed event plants; standard field application rates
From the text: The agronomic characteristics of cotton event pDAB4468.19.10.3 were quantified in field trials conducted across geographically different locations throughout the cotton belt in 2010. These studies compared the agronomic performance of cotton event pDAB4468.19.10.3 (with and without applications of the herbicides 2,4-D and glufosinate) to the non-transgenic near-isoline control, Coker 310. No agronomically meaningful unintended differences were observed between cotton event pDAB4468.19.10.3 and the Coker 310 control plants. […] Additionally, the agronomic performance of cotton event pDAB4468.19.10.3 was not altered as a result of the application of the herbicides, 2,4-D and glufosinate, as compared to the cotton event pDAB4468.19.10.3 plants which were not sprayed with the herbicide treatments. […]
Seeds of cotton event pDAB4468.19.10.3 and seeds of the near-isoline control line, Coker 310, were planted at a rate of 80 seeds per 20 ft row with a row spacing of 34-38 inches (86.36 cm-96.52 cm). […] The measured agronomic characteristics were equivalent for cotton event pDAB4468.19.10.3 as compared to the Coker 310 near-isoline control plants for all of the agronomic characteristics measured and statistically analyzed. […]

[3] = system: cotton event pDAB4468.19.10.3; assay: Tolerance to glufosinate in field trials (percent visual injury); assay type: in vivo, Gossypium hirsutum; settings: for Percent visual injury: single post-emergence application, 6-8 leaf
Description: The tolerance of cotton event pDAB4468.19.10.3 to post-emergence applications of glufosinate was studied in field trials during the 2010 growing season. Herbicide tolerance was assessed following a single post-emergence application of glufosinate applied to 6-8 leaf cotton event pDAB4468.19.10.3, which represents a herbicide application timing typically utilized with glufosinate to achieve satisfactory weed control.
Glufosinate tolerance was measured by assessing cotton plants for injury at 2-4 days after application (DAA), 7-9 DAA, 13-19 DAA and 22-29 DAA. Injury was assessed by assigning a percent visual injury rating using a linear percentage scale (1-100) where 0% represents no visible herbicide injury and 100% represents plant death. The ratings were a composite score for any herbicide symptomology including chlorosis, leaf necrosis, stunting and plant death. Herbicide symptomology (where present) was primarily chlorosis and necrosis.
as §1, with “glufosinate ammonium (Ignite 280 SL™, Bayer, Research Triangle, N.C.)” for “2,4-D amine (Weedar 64™, NuFarm, Burr Ridge, Ill.)”, “542, 1084,” for “1120, 2240,”, “2168” for “4480”, “glufosinate” for “2,4-D”, “(542” for “(1120”, “would be expected” for “are known”

## O=C(O)COc1ccc(Cl)cc1Cl [2,4-D]
non-transformed cotton
  result of treatment of non-transformed cotton: plant death
[1]; 1120-4480 g ae/ha, with the exception of transient epinasty 0-1 DAA
  herbicide injury noted in the field experiments: no agronomically-significant herbicide injury
[1]; 1120 g ae/ha, 0-1 DAA
  Percent visual injury: 3.6%
[1]; 1120 g ae/ha, 7-8 DAA
  Percent visual injury: 1.4%
[1]; 1120 g ae/ha, 12-16 DAA
  Percent visual injury: 0.6%
[1]; 1120 g ae/ha, 24-32 DAA
  Percent visual injury: 0.0%
[1]; 2240 g ae/ha, 0-1 DAA
  Percent visual injury: 11.8%
[1]; 2240 g ae/ha, 7-8 DAA
  Percent visual injury: 3.5%
[1]; 2240 g ae/ha, 12-16 DAA
  Percent visual injury: 2.7%
[1]; 2240 g ae/ha, 24-32 DAA
  Percent visual injury: 0.1%
[1]; 4480 g ae/ha (>4x rate required for weed control)
  crop injury beyond the 7-8 DAA evaluation interval: little crop injury
[1]; 4480 g ae/ha, 0-1 DAA
  Percent visual injury: 19.4%
[1]; 4480 g ae/ha, 7-8 DAA
  Percent visual injury: 11.0%
[1]; 4480 g ae/ha, 12-16 DAA
  Percent visual injury: 5.9%
[1]; 4480 g ae/ha, 24-32 DAA
  Percent visual injury: 0.6%
[2]
  agronomic performance of the event as a result of herbicide application: not altered

## CP(=O)(O)CCC(N)C(=O)O (stereo not shown) [glufosinate]
[3]; 542-2168 g ae/ha, with the exception of transient chlorosis at 2168 g ae/ha at 2-4 & 7-9 DAA
  herbicide injury noted in the field experiments: no agronomically significant herbicide injury
[3]; 542 g ae/ha, 2-4 DAA
  Percent visual injury: 2.7%
[3]; 542 g ae/ha, 7-9 DAA
  Percent visual injury: 1.9%
[3]; 542 g ae/ha, 13-19 DAA
  Percent visual injury: 0.1%
[3]; 542 g ae/ha, 22-29 DAA
  Percent visual injury: 0.0%
[3]; 1084 g ae/ha, 2-4 DAA
  Percent visual injury: 6.6%
[3]; 1084 g ae/ha, 7-9 DAA
  Percent visual injury: 4.0%
[3]; 1084 g ae/ha, 13-19 DAA
  Percent visual injury: 0.2%
[3]; 1084 g ae/ha, 22-29 DAA
  Percent visual injury: 0.0%
[3]; 2168 g ae/ha (>4x rate required for weed control)
  crop injury beyond the 7-9 DAA evaluation interval: little crop injury
[3]; 2168 g ae/ha, 2-4 DAA
  Percent visual injury: 13.5%
[3]; 2168 g ae/ha, 7-9 DAA
  Percent visual injury: 10.0%
[3]; 2168 g ae/ha, 13-19 DAA
  Percent visual injury: 2.3%
[3]; 2168 g ae/ha, 22-29 DAA
  Percent visual injury: 0.3%
[2]
  agronomic performance of the event as a result of herbicide application: not altered
